Tested on: patients with diabetic retinopathy undergoing cataract surgery
Assay: Intravitreal injection of anti-VEGF compound before cataract surgery in patients with diabetic retinopathy (case reports)
Format: in vivo, human
Conditions: Example 2: diabetic retinopathy; 0.15 cc (3.75 mg) intravitreal, same day prior to cataract surgery
Method: The following is an example of a method performed for the intravitreal injection of pharmaceutical compositions containing at least one anti-VEGF compound. Prior to injecting a needle through the sclera, the eyes were massaged to soften the ophthalmic tissue. The next step is to create a bleb in the conjunctiva and move the conjunctiva up from prefere so it covered an area about 3.5 mm from the limbus. Once the conjunctiva is prepared, the needle is inserted through the sclera into the vitreous. A 30 or 31 gauge needle is used. […]
A person underwent cataract surgery in the right eye. […] Refraction of the right eye was measured as −0.25−0.75×170 20/200. […] Refraction of the right eye after one week was measured at −0.25 sph 20/25.
A person with proliferative diabetic retinopathy with a history of pan-photocoagulation underwent cataract surgery of both eyes, however on different dates. Preoperative right eye refraction was measured as pl −0.50×174 20/100. Preoperative left eye refraction was measured as −0.75 sph 20/150. […]
A person with proliferative diabetic retinopathy with a history of pan-photocoagulation underwent cataract surgery of the left eye. Preoperative left eye refraction was measured as plano sph 20/80. […] Six days following cataract surgery refraction of the left eye was measured as plano sph 20/25.

Question: With “Bevacizumab: anti-VEGF humanized monoclonal IgG1 antibody that binds and inhibits VEGF (trade name AVASTIN, Genentech)” as the substance, how does the “Patient condition after one week” value read?
Answer: The value was “doing well”.

— patent US20080070855A1, “Treatment with anti-VEGF agents to prevent postoperative inflammation and angiogenesis in normal and diseased eyes” (priority 2006, published 2008)
